Measurements from patent publication US20230284616A1, “FUNGICIDAL COMPOSITIONS” (SYNGENTA CROP PROTECTION AG, priority 2020, published 2023).
Read-outs that look alike come from different tables or passages of the source. Numbered stars: 1 amine (or outer) side, 2 acyl side, 3 side chain; on linkers, the order of the positions; unused ones are H or OH. Square brackets hold non-standard residues; d marks the D form. Peptide text beside a SMILES is read from it. ξ: configuration not given here. ξNMeVal(3-OH) = CNC(C(=O)O)C(C)(C)O; NMeF = CN[CH](Cc1ccccc1)C(=O)O; X1 = CCC(C)C(O[*:1])C(=O)[*:2]; NMeV = CN[CH](C(=O)O)C(C)C

What was measured:
[1] = test system: Alternaria solani; test: Liquid culture test in well plates, Alternaria solani (early blight of tomato/potato), Example 1-2; assay type: cell-based
Method: (§1) Mycelia fragments or conidia suspensions of a fungus, prepared either freshly from liquid cultures of the fungus or from cryogenic storage, are directly mixed into nutrient broth. DMSO solutions of the test compound (max. 10 mg/mL) is diluted with 0.025% Tween20 by factor 50 and 10 µL of this solution is pipetted into a microtiter plate (96-well format). […] The test plates are incubated in the dark at 24° C. and 96% relative humidity (rh). The inhibition of fungal growth is determined photometrically and visually after 3 - 7 days, depending on the pathosystem, and percent antifungal activity relative to the untreated check is calculated.
Conidia of the fungus from cryogenic storage were directly mixed into nutrient broth (PDB potato dextrose broth). After placing a DMSO solution of the test compositions into a microtiter plate (96-well format) the nutrient broth containing the fungal spores was added.

[2] = test system: Botrytis cinerea; test: Liquid culture test in well plates, Botrytis cinerea (gray mould), Example 1-1; assay type: cell-based; conditions: Cyprodinil 0.005 ppm alone, growth inhibition, photometric, 72 hours, read-out: (B) inhibition (%)
Method: as §1
Conidia of the fungus from cryogenic storage were directly mixed into nutrient broth (PDB potato dextrose broth). After placing a DMSO solution of the test compositions into a microtiter plate (96-well format), the nutrient broth containing the fungal spores was added.

[3] = 48 h, read-out: (A) inhibition (%)

Row | Structure (SMILES) | inhibition at 0.01 ppm [1, 3] [%] | inhibition at 0.02 ppm [1, 3] [%] | inhibition at 0.04 ppm [1, 3] [%] | inhibition at 0.005 ppm [2] [%] | inhibition at 0.04 ppm ([1]; Cyprodinil 0.04 ppm alone, 48 hours, read-out: (B) inhibition (%)) [%]
1 | CCC(C)C1NC(=O)C2CCCN2C(=O)C(Cc2ccccc2)N(C)C(=O)C(Cc2ccccc2)NC(=O)C(C(C)C)N(C)C(=O)C(C(C)CC)OC(=O)C(C(C)(C)O)N(C)C(=O)C(CC(C)C)NC(=O)C(C(C)C)N(C)C1=O (centres unmarked) [Aureobasidin A] (cyclo([ξNMeVal(3-OH)][X1][NMeV]F[NMeF]PI[NMeV]L); configuration not given here) | 24 | 31 | 43 |  | 
2 | Cc1cc(C2CC2)nc(Nc2ccccc2)n1 [Cyprodinil, cyprodinil, reference compound] |  |  |  | 34 | 35
